Like-named read-outs stand apart in the source and are kept apart here.

For this assay, the target named is human NAMPT (Homo sapiens, UniProt P43490). The assay can be described thus: Human recombinant enzyme assay (NMN fluorescence biochemical assay, activation of NAMPT). As to the method: Compounds described herein were assayed for their ability to stimulate the synthesis of nicotinamide mononucleotide (NMN) by the enzyme NAMPT. The human recombinant enzyme assay measures the activation of the enzyme activity by compounds using recombinant enzyme and substrates in a buffered cell-free system. The assay conditions closely mimic cellular environments. Dose responses were measured using an assay to detect the formation of nicotinamide mono-nucleotide. All experiments were performed in the 384-well format. […] Enzyme reactions were initiated with the addition of 10 μL of a solution containing the substrates. The final assay conditions were as follows: 6 nM human NAMPT, 2.5 mM ATP, 20 μM PRPP and 150 μM nicotinamide in 50 mM HEPES, pH 7.2, 1 mM DTT, 1 mM CHAPS 50 mM NaCl, 100 mM MgCl2. Following an incubation of 60 min at ambient temperature, 10 μL of 20% acetophenone in DMSO was added, followed by 10 μL of 2 M KOH and 40 μL of formic acid. The plates were read for fluorescence (Excitation/Emission=355 nm/460 nm) using an EnVision plate reader after 40 mins of incubation at ambient temperature.
human NAMPT, sequence (P43490 whole entry): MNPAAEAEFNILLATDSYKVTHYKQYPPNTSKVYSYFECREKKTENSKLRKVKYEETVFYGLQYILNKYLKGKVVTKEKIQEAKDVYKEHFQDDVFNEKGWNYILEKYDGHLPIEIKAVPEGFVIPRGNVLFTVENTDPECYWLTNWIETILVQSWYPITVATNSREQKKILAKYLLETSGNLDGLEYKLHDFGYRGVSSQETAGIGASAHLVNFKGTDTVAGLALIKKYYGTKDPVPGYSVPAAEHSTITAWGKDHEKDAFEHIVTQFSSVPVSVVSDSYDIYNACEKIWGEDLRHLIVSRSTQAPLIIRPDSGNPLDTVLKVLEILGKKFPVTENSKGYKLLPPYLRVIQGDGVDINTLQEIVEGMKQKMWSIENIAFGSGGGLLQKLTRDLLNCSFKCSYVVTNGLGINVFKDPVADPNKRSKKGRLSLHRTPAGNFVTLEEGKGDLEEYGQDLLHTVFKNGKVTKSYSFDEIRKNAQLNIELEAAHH

Where [1] appears, read: Table A, human recombinant NAMPT, NMN formation, 60 min, read-out: EC50 Human.
The mark [2] stands for this setting: Table A, human recombinant NAMPT, NMN formation, 60 min.

Take `COc1ccc(CNC(=O)NCC2CC23CCN(C(=O)OC(C)(C)C)CC3)cc1` (stereo not shown) [Compound 28, tert-butyl 1-((3-(4-methoxybenzyl)ureido)methyl)-6-azaspiro[2.5]octane-6-carboxylate]: under setting [1], the EC50 was determined as 42.5 µM.
Take `COc1ccc(CNC(=O)NC2CC3(CC(CC(=O)N(C)Cc4ccccc4)C3)C2)cc1` (stereo not shown) [Compound 67, N-benzyl-2-(6-(3-(4-methoxybenzyl)ureido)spiro[3.3]heptan-2-yl)-N-methylacetamide]: the EC50 was 35.9 µM. Besides, the “AC1.4 Human” value under setting [2] came to 2.3 µM.
For `COc1ccc(CNC(=O)NC2CC3(C2)CC(C(=O)N2CCN(CC4CC4)CC2)C3)cc1` (stereo not shown) [Compound 112, 1-(6-(4-(cyclopropylmethyl)piperazine-1-carbonyl)spiro[3.3]heptan-2-yl)-3-(4-methoxybenzyl)urea], the “AC1.4 Human” value under setting [2] was found to be 3.0 µM. Further, the EC50 under setting [1] came to 46.9 µM.
With `COc1ccc(CNC(=O)NC2CC3(C2)CC(C(=O)N2CCCc4cc(C(F)(F)F)ccc42)C3)cc1` (stereo not shown) [Compound 104, 1-(4-methoxybenzyl)-3-(6-(6-(trifluoromethyl)-1,2,3,4-tetrahydroquinoline-1-carbonyl)spiro[3.3]heptan-2-yl)urea], under setting [2], the “AC1.4 Human” value was 0.5 µM. The EC50 under setting [1] was found to be 10.7 µM.
Consider `O=C(NCCCCC1CCN(c2ccncc2)CC1)NCc1ccc(Cl)cc1` [Compound 308, 1-(4-chlorobenzyl)-3-(4-(1-(pyridin-4-yl)piperidin-4-yl)butyl)urea], for which the “AC1.4 Human” value under setting [2] came to 2.2 µM. In addition, the EC50 under setting [1] is 5 µM.
Turning to `COc1ccc(CNC(=O)NC2CC3(C2)CC(C(=O)NC2Cc4ccccc4C2O)C3)cc1` (stereo not shown) [Compound 94, N-(1-hydroxy-2,3-dihydro-1H-inden-2-yl)-6-(3-(4-methoxybenzyl)ureido)spiro[3.3]heptane-2-carboxamide], under setting [2], the “AC1.4 Human” value is 11.0 µM. In addition, under setting [1], the EC50 amounted to 38.7 µM.
As for `COc1ccc(CNC(=O)NC2CC3(CC(Cc4ccc(C)nc4)C3)C2)cc1` (stereo not shown) [Compound 337, 1-(4-methoxybenzyl)-3-(6-((6-methylpyridin-3-yl)methyl)spiro[3.3]heptan-2-yl)urea], under setting [2], the “AC1.4 Human” value turned out to be 1.0 µM. The EC50 under setting [1] worked out at 26.1 µM.
As to `O=C(NCc1ccc(Cl)cc1)NC1CC2(CC(Cc3cccnc3)C2)C1` (stereo not shown) [Compound 345, 1-(4-chlorobenzyl)-3-(6-(pyridin-3-ylmethyl)spiro[3.3]heptan-2-yl)urea], under setting [2], the “AC1.4 Human” value is 1.6 µM. The EC50 under setting [1] was determined as 0.6 µM.
`CN(C(=O)CCCCCNC(=O)NCc1ccc(Cl)cc1)c1ccccc1F` [Compound 274, 6-(3-(4-chlorobenzyl)ureido)-N-(2-fluorophenyl)-N-methylhexanamide]: the “AC1.4 Human” value under setting [2] was 1.9 µM. Further, the concentration for a half-maximal effect (EC50) under setting [1] amounted to 0.3 µM.
For `COc1ccc(CNC(=O)NC2CC3(CC(CN4CCc5ccccc54)C3)C2)cc1` (stereo not shown) [Compound 128, 1-(6-(indolin-1-ylmethyl)spiro[3.3]heptan-2-yl)-3-(4-methoxybenzyl)urea], in that order: 0.6 µM and 20.8 µM.
For `Cc1cccc(C)c1C(=O)N1CCC(CCCCNC(=O)NCc2ccc(Cl)cc2)CC1` [Compound 319, 1-(4-chlorobenzyl)-3-(4-(1-(2,6-dimethylbenzoyl)piperidin-4-yl)butyl)urea], in that order: 0.8 µM and 0.8 µM.
Consider `COc1ccc(CNC(=O)NC2CC3(C2)CN(C(=O)OC(C)(C)C)C3)cc1` [Compound 37, tert-butyl 6-(3-(4-methoxybenzyl)ureido)-2-azaspiro[3.3]heptane-2-carboxylate], for which, under setting [2], the “AC1.4 Human” value came to 4.2 µM. Besides, under setting [1], the EC50 came to 58.9 µM.
As for `COc1ccc(CNC(=O)NC2CC3(C2)CC(C(=O)N2CCCC2c2ccncc2)C3)cc1` (stereo not shown) [Compound 58, 1-(4-methoxybenzyl)-3-(6-(2-(pyridin-4-yl)pyrrolidine-1-carbonyl)spiro[3.3]heptan-2-yl)urea], the “AC1.4 Human” value under setting [2] came out at 11.3 µM. Also, the EC50 under setting [1] turned out to be 39.6 µM.
For `Cc1cnccc1C(=O)NC1CC2(CC(NC(=O)NCc3ccc(Cl)cc3)C2)C1` (stereo not shown) [Compound 204, N-(6-(3-(4-chlorobenzyl)ureido)spiro[3.3]heptan-2-yl)-3-methylisonicotinamide], in that order: 13.6 µM and 26.8 µM.
With `COc1ccc(CNC(=O)NC2CC3(C2)CC(C(=O)NCc2ccccc2)C3)cc1` (stereo not shown) [Compound 68, N-benzyl-6-(3-(4-methoxybenzyl)ureido)spiro[3.3]heptane-2-carboxamide], the “AC1.4 Human” value under setting [2] was found to be 5.1 µM. The EC50 under setting [1] came out at 45.2 µM.
Taken in the same sequence, the figures for `COc1ccc(CNC(=O)NC2CC3(C2)CN(C(=O)c2ccc(C(C)(C)O)cc2)C3)cc1` [Compound 157, 1-(2-(4-(2-hydroxypropan-2-yl)benzoyl)-2-azaspiro[3.3]heptan-6-yl)-3-(4-methoxybenzyl)urea] were 4.1 µM and 47.6 µM.
`CN1CCN(CC2CC3(C2)CC(NC(=O)NCc2ccc(Cl)cc2)C3)C(c2ccccc2)C1` (stereo not shown) [Compound 254, 1-(4-chlorobenzyl)-3-(6-((4-methyl-2-phenylpiperazin-1-yl)methyl)spiro[3.3]heptan-2-yl)urea]: the “AC1.4 Human” value under setting [2] is 1.5 µM. Also, the EC50 under setting [1] amounted to 2.3 µM.
Consider `O=C(CCCCCNC(=O)NCc1ccc(Cl)cc1)Nc1cccc(F)c1` [Compound 285, 6-(3-(4-chlorobenzyl)ureido)-N-(3-fluorophenyl)hexanamide], for which, under setting [2], the “AC1.4 Human” value was 3.5 µM. The EC50 under setting [1] came out at 9.4 µM.
For the molecule `COc1ccc(CNC(=O)NC2CC3(C2)CN(C(=O)c2cccc(S(C)(=O)=O)c2)C3)cc1` [Compound 180, 1-(4-methoxybenzyl)-3-(2-(3-(methylsulfonyl)benzoyl)-2-azaspiro[3.3]heptan-6-yl)urea], the “AC1.4 Human” value under setting [2] stood at 7.8 µM. For the same molecule, the EC50 under setting [1] worked out at 37.6 µM.
As for `COc1ccc(CNC(=O)NC2CC3(C2)CC(C(=O)N2CCN(Cc4ccncc4)CC2)C3)cc1` (stereo not shown) [Compound 124, 1-(4-methoxybenzyl)-3-(6-(4-(pyridin-4-ylmethyl)piperazine-1-carbonyl)spiro[3.3]heptan-2-yl)urea], the “AC1.4 Human” value under setting [2] was determined as 1.3 µM. Besides, under setting [1], the EC50 was 24.9 µM.
For `Cc1ccc(C(=O)N(C)CC2CC3(C2)CC(NC(=O)NCc2ccc(Cl)cc2)C3)cn1` (stereo not shown) [Compound 248, N-((6-(3-(4-chlorobenzyl)ureido)spiro[3.3]heptan-2-yl)methyl)-N,6-dimethylnicotinamide], in that order: 5.0 µM and 6.6 µM.
Turning to `COc1ccc(CNC(=O)NC2CC3(C2)CC(C(=O)N2CCCc4cc(OC(F)(F)F)ccc42)C3)cc1` (stereo not shown) [Compound 107, 1-(4-methoxybenzyl)-3-(6-(6-(trifluoromethoxy)-1,2,3,4-tetrahydroquinoline-1-carbonyl)spiro[3.3]heptan-2-yl)urea], the “AC1.4 Human” value under setting [2] amounted to 2.9 µM. The EC50 under setting [1] is 48.8 µM.
Regarding `Cc1ccc(C(=O)N2CC3(CC(NC(=O)NCc4ccc(C(N)=O)nc4)C3)C2)cc1` [Compound 215, 5-((3-(2-(4-methylbenzoyl)-2-azaspiro[3.3]heptan-6-yl)ureido)methyl)picolinamide], the “AC1.4 Human” value under setting [2] turned out to be 3.6 µM. The EC50 under setting [1] worked out at 30.8 µM.
On to `CC(C)c1cccc(C(=O)N2CC3(CC(NC(=O)NCc4ccc(Cl)cc4)C3)C2)c1` [Compound 220, 1-(4-chlorobenzyl)-3-(2-(3-isopropylbenzoyl)-2-azaspiro[3.3]heptan-6-yl)urea], for which, under setting [2], the “AC1.4 Human” value is 3.6 µM. The EC50 under setting [1] amounted to 4.7 µM.
Regarding `COc1ccc(CNC(=O)NC2CC3(C2)CN(C(=O)C2(c4ccccc4)CC2)C3)cc1` [Compound 143, 1-(4-methoxybenzyl)-3-(2-(1-phenylcyclopropane-1-carbonyl)-2-azaspiro[3.3]heptan-6-yl)urea], under setting [2], the “AC1.4 Human” value was determined as 8.0 µM. Further, the EC50 under setting [1] came out at 45.6 µM.
In the case of `O=C(NCCCCCC(=O)N1CCOCC1)NCc1ccc(Cl)cc1` [Compound 259, 1-(4-chlorobenzyl)-3-(6-morpholine-6-oxohexyl)urea], under setting [2], the “AC1.4 Human” value came to 8.6 µM. The EC50 under setting [1] worked out at 59.4 µM.
As to `NC(=O)c1ccc(CNC(=O)NC2CC3(CC(NCc4ccccc4)C3)C2)cc1` (stereo not shown) [Compound 24], under setting [2], the “AC1.4 Human” value is 8.1 µM. In addition, under setting [1], the EC50 amounted to 29.1 µM.
With `COc1ccc(CNC(=O)NC2CC3(C2)CC(C(=O)N2CCN(Cc4cnn(C)c4)CC2)C3)cc1` (stereo not shown) [Compound 123, 1-(4-methoxybenzyl)-3-(6-(4-((1-methyl-1H-pyrazol-4-yl)methyl)piperazine-1-carbonyl)spiro[3.3]heptan-2-yl)urea], the “AC1.4 Human” value under setting [2] is 2.8 µM. For the same molecule, under setting [1], the EC50 was 51.5 µM.
For `NC(=O)c1ccc(CNC(=O)N[C@H]2C[C@H](C(=O)NCc3ccccc3)C2)cc1` [Compound 21, 4-((3-((1r,3r)-3-(benzylcarbamoyl)cyclobutyl)ureido)methyl)benzamide], the “AC1.4 Human” value under setting [2] is 8.0 µM. Moreover, the EC50 under setting [1] was 45 µM.
Regarding `O=C(NCc1ccncc1)NC1CC2(C1)CC(NC(=O)c1ccccc1)C2` (stereo not shown) [Compound 15, N-(6-(3-(pyridin-4-ylmethyl)ureido)spiro[3.3]heptan-2-yl)benzamide], under setting [2], the “AC1.4 Human” value turned out to be 10.4 µM. For the same molecule, the EC50 under setting [1] amounted to 17.7 µM.
In the case of `O=C(NCCCCC1CCN(c2nn[nH]n2)CC1)NCc1ccc(Cl)cc1` [Compound 318, 1-(4-(1-(2H-tetrazol-5-yl)piperidin-4-yl)butyl)-3-(4-chlorobenzyl)urea], under setting [2], the “AC1.4 Human” value stood at 3.9 µM. The EC50 under setting [1] amounted to 8.8 µM.

The record behind these values is patent publication US20230348369A1 (Cytokinetics, Inc., priority 2020, published 2023).
